Values quoted from earlier work as cited in patent US20110287109A1 (MAX INTERNATIONAL, LLC, priority 2010, published 2011).

Tests used:
exercise capacity = details: healthy humans, orally, 8-10 g per day by an adult
ATP levels = details: dogs subjected to ischemia (heart attack model), about 3 g/day for at least 5 days
[1] = administered directly to humans
glutathione levels = details: mice, 8 mmol/kg i.p.
[2] = system: irradiation-induced bowel injury; details: mice, 1 g/kg
[3] = system: acetaminophen hepatic and renal toxicity; details: mice, 2 g/kg
[4] = system: mice exposed to cyclophosphamide; details: 8 mmol/kg

SMILES | exercise capacity (exercise capacity) | ATP levels (ATP levels) | toxicity over wide dosage ranges [1] | increase of glutathione level in heart (glutathione levels; heart) | increase of glutathione level in muscle tissue (glutathione levels; muscle tissue) | protection against irradiation-induced bowel injury [2] | protection against acetaminophen hepatic and renal toxicity [3] | delivery of protective amounts of cysteine [4]
O=C[C@H](O)[C@H](O)[C@H](O)CO [ribose] | increase exercise capacity | effectively restored and maintained ATP levels | essentially non-toxic |  |  |  |  | 
O=C(O)[C@@H]1CSC(C(O)C(O)C(O)CO)N1 (stereo partly drawn) [RibCys, 2(R,S)-D-ribo-(1′,2′,3′,4′-tetrahydroxybutyl)thiazolidine-4(R)-carboxylic acid] |  |  |  | 1.5 × | 2.5 × | protect mice against irradiation-induced bowel injury | protect mice against acetaminophen hepatic and renal toxicity | deliver effective protective amounts of cysteine
